Laboratory results reported in patent US20130039929A1, “METHOD TREATING BREAST CANCER” (priority 2010, published 2013).

Tested on: HIF-1 dependent transcription
Experiment: 5×HRE luciferase reporter assay of hypoxia (CoCl2)-induced transcription in MDAMB-231 cells
Format: cell-based
Details: CoCl2 along with thalidomide 10 μM
Excerpt: FIGS. 5A-5E. FIG. 5A. Schematic map of luciferase reporter used; HRE: hypoxia responsive element. FIG. 5B. Assay of hypoxia-induced luciferase activity in the presence of each indicated siRNA transfection. **p<0.001, * p<0.01 versus control/CoCl2 one-way ANOVA, Bonferroni post test. FIG. 5C. Western blot showing the efficiency of knockdown for each βarr isoform. FIG. 5D. Assay of hypoxia induced luciferase reporter activity in Mouse Embryonic Fibroblasts (MEFs) that are null for both βarr1 and 2 under control and βarr1 replete conditions. *** p<0.001, between the two cobalt treated samples, Bonferroni post test, one-way ANOVA, n=3. FIG. 5E. Western blot of lysates showing expression of transfected βarr1.
FIGS. 7A-7D. FIG. 7A. […] FIG. 7B. […] FIG. 7C. […] FIG. 7D.
To test if the above β-arrestin1-HIF-1α interaction has functional consequences, an analysis was made of the effect of β-arrestin1 expression on HIF-1-mediated transcription during hypoxia. One of the most characterized HIF-regulated genes is the potent endothelial mitogen, VEGF-A, which regulates endothelial cell proliferation and blood vessel formation in both normal and cancerous tissues (Liu et al, Circ. Res. 77:638-643 (1995)). The VEGF-A gene contains a HRE in its 5′ UTR (untranslated region) and hypoxia induces a rapid and sustained increase in VEGF-A mRNA levels. […]

O=C1CCC(N2C(=O)c3ccccc3C2=O)C(=O)N1 (stereo not shown) [thalidomide]
HIF-1 dependent transcriptional response (5×HRE luciferase reporter activity): complete inhibition
